Assays:
[1] = Dynamic moisture sorption (hygroscopicity); format: physicochemical; conditions: 90% RH, 25° C.; FIG. 7
Experimental: Hygroscopicity was evaluated on a dynamic moisture sorption balance (IGAsorp, Hiden Isochema, Warrington, UK) equipped with a data analyzer (IGAsorp, version 6.0.0.23, Hiden Isochema, Warrington UK). The balance was calibrated using standardized weights of 20, 50, and 100 mg. The RH probe was calibrated using standardized salt solutions of Lithium Chloride, Potassium Carbonate, and Sodium Chloride. During the experiment, the flow rate of nitrogen gas at different relative humidity was 250 mL/min. For anhydrous materials, the sample was first dried with dry nitrogen at 50° C. for two hours. The temperature was then set to 25° C. and the relative humidity was changed from 0% to 90% and back to 0% at 10% interval. For hydrated samples, the temperature was set to 25° C. and the relative humidity was changed at 10% interval from 30% to 90%, back to 10%, and then to 90%.

in vivo = conditions: dog
Experimental: A series of studies evaluated the effect of the bis-hydrochloride and bis-tosylate form on the ritonavir plasma concentrations following single 100 mg base doses in dogs. Each of the salts was evaluated in a single group of six dogs. The free base and the two salts were weighed into gelatin capsules at a dose of 100 mg base for dosing in the dogs. The dogs were fasted overnight prior to dosing, but were permitted free access to water. Approximately 30 minutes prior to dosing, the dogs received a 100 ug/kg subcutaneous dose of histamine. Plasma concentrations of parent drug were determined by HPLC-MS/MS. The following formulations/salts were evaluated: amorphous ritonavir bis-hydrochloride, amorphous ritonavir free base, and ritonavir bis-tosylate.

[2] = Intrinsic dissolution rate (IDR), compressed disc, USP II; format: physicochemical; conditions: 200 mL pH 6.8 phosphate buffer, paddle 100 rpm; FIG. 10
Experimental: Drug dissolution was measured using in USP II (Dissolution medium: 200 mL pH 6.8 phosphate buffer; Paddle speed: 100 rpm).

| moisture picked up [1] | AUC (in vivo; po, 100 mg, range) [ng·h/mL] | Cmax (in vivo; po, 100 mg, peak concentration (Cmax), range) [ng/mL] | AUC, range (in vivo; po, 100 mg) [ng·h/mL] | peak concentration (Cmax), range (in vivo; po, 100 mg) [ng/mL] | Compound | bioavailability compared with free base (in vivo) | intrinsic dissolution rate compared with ritonavir free base [2] |
| --- | --- | --- | --- | --- | --- | --- | --- |
| about 20 % (w/w) | 3160 to 20200 | 1160 to 8390 | – | – | CC(C)c1nc(CN(C)C(=O)N[C@H](C(=O)N[C@@H](Cc2ccccc2)C[C@H](O)[C@H](Cc2ccccc2)NC(=O)OCc2cncs2)C(C)C)cs1.Cl.Cl [ritonavir bis-hydrochloride] | greater bioavailability than the free base of ritonavir | significantly faster dissolution rate than the ritonavir free base |
| – | < 22 | – | – | – | CC(C)c1nc(CN(C)C(=O)N[C@H](C(=O)N[C@@H](Cc2ccccc2)C[C@H](O)[C@H](Cc2ccccc2)NC(=O)OCc2cncs2)C(C)C)cs1 [ritonavir free base, (2S,3S,5S)-5-(N-(N-((N-methyl-N-((2-isopropyl-4-thiazolyl)-methyl)amino)carbonyl)-L-valinyl)amino)-2-(N-((5-thiazolyl)-methoxy-carbonyl)-amino)-1,6-diphenyl-3-hydroxyhexane, reference compound] | – | – |
| – | – | – | 70 to 6420 | 10 to 1620 | ritonavir bis-tosylate [reference compound] | – | – |

Source: patent publication US8598216B1 (Abbvie Inc., priority 2010, dated 2013)
